Test results published in paper PMC11203657, “Glyphosate-Induced Phosphonatase Operons in Soil Bacteria of the Genus Achromobacter” (International Journal of Molecular Sciences, 2024).
Like-named read-outs stand apart in the source and are kept apart here.

Columns and labels:
PhnX19-I = biological target: T1, PhnX19-I (Achromobacter insolitus, UniProt Z9I4E4M620); assay: inhibition kinetics, ADH/NADH-coupled PAA hydrolysis, vector method; type: biochemical; conditions: substrate PAA 0.1-5 mM, pH 7.5, 10 mM MgCl2, 25 °C
T1 construct: native, purified from wild-type strain, untagged; homodimer; MALDI match to OAD13647.1
T1 sequence (Z9I4E4M620 1-273): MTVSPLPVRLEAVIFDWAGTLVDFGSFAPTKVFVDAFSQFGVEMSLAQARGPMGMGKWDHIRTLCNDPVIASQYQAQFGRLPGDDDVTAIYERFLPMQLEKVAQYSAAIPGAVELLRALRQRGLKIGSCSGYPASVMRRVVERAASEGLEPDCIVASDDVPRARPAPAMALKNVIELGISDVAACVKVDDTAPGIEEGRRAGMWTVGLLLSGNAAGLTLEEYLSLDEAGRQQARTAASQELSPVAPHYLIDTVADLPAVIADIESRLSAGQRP
Source text: inhibition kinetics, ADH/NADH-coupled PAA hydrolysis, vector method on PhnX19-I

PhnX19-II = biological target: T2, PhnX19-II (Achromobacter insolitus, UniProt Z9I4E4M620); assay: as above; type: biochemical; conditions: substrate PAA 0.1-5 mM, pH 7.5, 10 mM MgCl2, 25 °C
T2 construct: native, purified from wild-type strain, untagged; homodimer; MALDI match to OAD13647.1
T2 sequence (Z9I4E4M620 1-273): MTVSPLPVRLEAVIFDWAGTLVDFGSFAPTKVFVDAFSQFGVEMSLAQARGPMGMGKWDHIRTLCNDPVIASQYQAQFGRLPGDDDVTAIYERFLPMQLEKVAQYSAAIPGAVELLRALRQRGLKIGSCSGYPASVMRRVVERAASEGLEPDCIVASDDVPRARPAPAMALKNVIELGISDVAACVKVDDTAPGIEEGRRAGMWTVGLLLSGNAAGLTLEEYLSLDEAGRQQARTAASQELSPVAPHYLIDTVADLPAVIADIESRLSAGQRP
Source text: inhibition kinetics, ADH/NADH-coupled PAA hydrolysis, vector method on PhnX19-II

PhnX16 [1] = biological target: T3, PhnX16 (Achromobacter aegrifaciens, UniProt A0ABU2D8D6); assay: activation kinetics, ADH/NADH-coupled PAA hydrolysis, vector method; type: biochemical; conditions: substrate PAA 0.1-5 mM, pH 7.5, 10 mM MgCl2, 25 °C; Ka is an activation constant; competitive-type activator
T3 construct: gene phnX; native, purified from wild-type strain, untagged; subunit ~31 kDa, homodimer ~60-65 kDa
T3 sequence (A0ABU2D8D6 4-276): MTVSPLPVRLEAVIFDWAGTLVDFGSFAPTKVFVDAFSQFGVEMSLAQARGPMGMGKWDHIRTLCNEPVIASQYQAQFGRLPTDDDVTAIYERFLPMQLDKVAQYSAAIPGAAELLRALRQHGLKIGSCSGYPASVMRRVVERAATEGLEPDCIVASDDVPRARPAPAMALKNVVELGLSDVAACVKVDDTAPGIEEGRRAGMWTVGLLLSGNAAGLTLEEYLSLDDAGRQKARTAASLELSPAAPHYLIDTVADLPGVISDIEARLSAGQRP
Source text: activation kinetics, ADH/NADH-coupled PAA hydrolysis, vector method on PhnX16

PhnX16 [2] = biological target: T3, PhnX16; assay: inhibition kinetics, ADH/NADH-coupled PAA hydrolysis, vector method; type: biochemical
Source text: inhibition kinetics, ADH/NADH-coupled PAA hydrolysis, vector method on PhnX16

purified protein = substrate: O=CCP(=O)(O)O; assay: purified protein; type: biochemical, Achromobacter aegrifaciens; conditions: pH 7.5, 50 mM Tris-HCl, 10 mM MgCl2, 0.1 mM DTT, 25 °C
[3] = noncompetitive in table, uncompetitive in text, read-out: Effectors / 2,4-DNPA
[4] = noncompetitive inhibitor, read-out: Effectors / BPA
[5] = uncompetitive inhibitor, read-out: Effectors / GP
[6] = competitive inhibitor, read-out: Effectors / 2-AEP

**Q.** For CC(=O)Oc1ccc([N+](=O)[O-])cc1[N+](=O)[O-] [2,4-DNPA, 2,4-dinitrophenyl acetate], which Ki (PhnX19-I; [3]) is on record?
**A.** 730 µM

**Q.** What about the Ki (PhnX19-II; [3]) of the same molecule?
**A.** 760 µM

**Q.** Which “Ka (activation constant)” value (PhnX16 [1]) does the source give for NCP(=O)(O)O [AMPA, aminomethylphosphonic acid] here?
**A.** 43.5 mM

**Q.** How did the Ki (PhnX19-I; [4]) turn out when CCCCP(=O)(O)O [BPA, butylphosphonic acid] was run?
**A.** 390 µM

**Q.** And the Ki (PhnX16 [2])?
**A.** 750 µM

**Q.** What about the Ki (PhnX19-II; [4]) of the same molecule?
**A.** 300 µM

**Q.** How did the Ki (PhnX19-I; [5]) turn out when O=C(O)CNCP(=O)(O)O [GP, N-phosphonomethylglycine] was run?
**A.** 4000 µM

**Q.** And the Ki (PhnX16 [2]; read-out: Effectors / GP)?
**A.** 11600 µM

**Q.** And the Ki (PhnX19-II; [5])?
**A.** 5400 µM

**Q.** How did the Ki (PhnX19-I; [6]) turn out when NCCP(=O)(O)O [compound 1, 2-aminoethylphosphonic acid] was run?
**A.** 2200 µM

**Q.** What about the “Effectors / 2-AEP” value (PhnX16 [1]) of the same molecule?
**A.** 21 mM

**Q.** And the Ki (PhnX19-II; [6])?
**A.** 2480 µM

B1: PhnX16 (Achromobacter aegrifaciens) (protein)
chain: MTVSPLPVRLEAVIFDWAGTLVDFGSFAPTKVFVDAFSQFGVEMSLAQARGPMGMGKWDHIRTLCNEPVIASQYQAQFGRLPTDDDVTAIYERFLPMQLDKVAQYSAAIPGAAELLRALRQHGLKIGSCSGYPASVMRRVVERAATEGLEPDCIVASDDVPRARPAPAMALKNVVELGLSDVAACVKVDDTAPGIEEGRRAGMWTVGLLLSGNAAGLTLEEYLSLDDAGRQKARTAASLELSPAAPHYLIDTVADLPGVISDIEARLSAGQRP
notes: native, purified from wild-type strain, untagged; subunit ~31 kDa, homodimer ~60-65 kDa
**Q.** B1 was tested. Which Km (purified protein) did it give?
**A.** 889 ± 138 µM

**Q.** What about the Vmax (purified protein) of the same molecule?
**A.** 1.2 µmol/min/mg

**Q.** And the kcat (purified protein)?
**A.** 0.6 ± 0.1 s⁻¹

**Q.** And the kcat/Km (purified protein)?
**A.** 670 M⁻¹ s⁻¹

B2: PhnX16R (Achromobacter aegrifaciens) (protein)
chain: MTVSPLPVRLEAVIFDWAGTLVDFGSFAPTKVFVDAFSQFGVEMSLAQARGPMGMGKWDHIRTLCNEPVIASQYQAQFGRLPTDDDVTAIYERFLPMQLDKVAQYSAAIPGAAELLRALRQHGLKIGSCSGYPASVMRRVVERAATEGLEPDCIVASDDVPRARPAPAMALKNVVELGLSDVAACVKVDDTAPGIEEGRRAGMWTVGLLLSGNAAGLTLEEYLSLDDAGRQKARTAASLELSPAAPHYLIDTVADLPGVISDIEARLSAGQRP
notes: recombinant full length, C-terminal His6 tag kept, pET-22b without pelB, E. coli BL21(DE3); homodimer
**Q.** With B2 as the molecule, how does the Km (purified protein) read?
**A.** 641 ± 23 µM

**Q.** And the Vmax (purified protein)?
**A.** 1.12 µmol/min/mg

**Q.** And the kcat (purified protein)?
**A.** 0.56 ± 0.05 s⁻¹

**Q.** What about the kcat/Km (purified protein) of the same molecule?
**A.** 875 M⁻¹ s⁻¹
